From patent US9023853B2, “Janus kinase 2 (JAK2) inhibitor for the treatment of lupus” (Cephalon, Inc., priority 2010, dated 2015)

How the values were obtained:
Format in all cases: in vivo, mouse
[1] = system: anti-chromatin antibody secreting cells (ASCs); experiment: Anti-chromatin antibody secreting B-cell Elispot, MRL/lpr spleen; details: MRL/lpr mice; 100 mg/kg; p<0.001
Protocol: B-cell Elispot components were ordered from MabTech (Nacka Strand, Sweden) and nitrocellulose IP filter plates were ordered from Millipore (Billerica, Mass.). […] Spleens were processed using glass homogenization, filtered through a 60 μm sterile cell strainer and red blood cells (RBCs) lysed using BioLegend (San Diego, Calif.) lysis buffer. Processed splenocytes were added to each well in culture medium. To avoid skewing of true ex vivo frequencies of antibody secreting cell types (ASCs), cells were not stimulated with a polyclonal mitogen like LPS, but rather incubated in media alone to allow monitoring of genuine ex vivo antibody release. Anti-mouse pan-IgG was used as a positive control for total IgG producing ASCs and was used to normalize results. Frequencies for each antigen were identified in an initial test phase for each model. […] Different numbers of splenocytes were added for different antigens due to saturation limits of spot frequencies per well. These limits were previously established. B-cell Elispots were incubated overnight at 37° C. To develop each assay, secondary antibody was added to each well, incubated, washed and alkaline phosphatase strepavidin was used as the conjugate; substrate used was BCIP-NBT. Plates were developed until spots were visible. […]

IL-12 = experiment: Serum IL-12 (Luminex) in NZM mice
Protocol: (§1) For the processing of serum samples for cytokine analysis, frozen plasma at −80° C. was thawed on ice, vortexed, and centrifuged for 10 minutes to remove debris and aggregates. A total of 25-50 μL of serum was used for Luminex® assays following the manufacturer's instructions. Ten different mouse cytokines were measured using the mouse cytokine 10-plex bead kit (Invitrogen, Carlsbad, Calif., no. LMC0001). Briefly, filter plates (Millipore, Billerica, Mass., no. MAIPSWU10), were pre-wet with 200 μL of wash solution (kit component) and 25 μL of beads were added per well. […]
(§2) Age mated, female, NZM or NZW/LacJ, mice were matured for the study of lupus nephritis for a total of 7 months or 210 days at which time urine was collected for proteinuria detection. Mice with 0.5-1.0 mg/ml of urine protein as determined by an optical density-based total protein precipitation assay and cross-checked for 30-300 mg/dl of protein as determined by a stick assay were considered proteinuria positive and selected for study entry. […] End-stage lupus nephritis was evaluated by histopathology and scored by a board certified pathologist for the assessment of total renal damage in diseased animals using the scoring method described by Smith et al (Smith, Dong et al. 2007). […]

IL-13 = experiment: Serum IL-13 in NZM mice
Protocol: as §1, §2

KC/IL-8 = experiment: Serum KC/IL-8 in NZM mice
Protocol: as §1, §2

CD38 = CD38 expression by flow cytometry in NZM mice
Protocol: Antibodies used for flow cytometry consisted of anti-mouse CD138-APC (eBioscience, San Diego, Calif.), anti-mouse CD19-FITC (eBioscience, San Diego, Calif.), anti-mouse CD38-PE (eBioscience, San Diego, Calif.) and anti-mouse CD45R/B220-Cyc (eBioscience, San Diego, Calif.), Rat IgG1-APC isotype control (eBioscience, San Diego, Calif.), Rat IgG2a-PE isotype control (eBioscience, San Diego, Calif.). All samples were analyzed using an Accuri C6 Flow Cytometer. Complete media was used for all experiments involving the ex vivo culture of splenocytes for all Elispot experiments. […]
as §2

## CN1CCN(c2cccc(Nc3nc4c(-c5ccc(S(C)(=O)=O)cc5)cccn4n3)c2)CC1 [COMPOUND A, [8-(4-methanesulfonyl-phenyl)-[1,2,4]triazolo[1,5-a]pyridin-2-yl]-[3-(4-methyl-piperazin-1-yl)-phenyl]-amine]
[1]
  frequency of anti-chromatin ASCs in the spleen, decrease vs vehicle: 89.1%
IL-12; 55 mg/kg
  serum IL-12 decrease compared to vehicle: 99.4%
IL-12; 100 mg/kg
  serum IL-12 decrease compared to vehicle: 99.9%
IL-13; 55 mg/kg
  serum IL-13 decrease compared to vehicle: 86.2%
IL-13; 100 mg/kg
  serum IL-13 decrease compared to vehicle: 79.5%
KC/IL-8; 55 mg/kg
  serum KC/IL-8 decrease compared to vehicle: 78.0%
KC/IL-8; 100 mg/kg
  serum KC/IL-8 decrease compared to vehicle: 72.9%
CD38; COMPOUND A 55 mg/kg
  decrease in expression of CD38: 66.6%
CD38; COMPOUND A 100 mg/kg
  decrease in expression of CD38: 74.2%
